This passage reports T/C results from PubChem BioAssay AID200 (DTP/NCI, 2004).

“And” between values parts separate entries of the source, which are not always exact repeats. Equal entries are not always repeated. Inconclusive results and toxic doses are left out. Where a SMILES comes first, the peptide text is derived from it. The star is where a group is joined. Cbz = O=C(OCc1ccccc1)*; Bn = c1ccc(C*)cc1

This assay relates to B6C3F1 mice, B16 melanoma ip, median survival T/C. Kind of assay: NCI In Vivo Anticancer Drug Screen. Data for tumor model B16 Melanoma (intraperitoneal) in B6C3F1 mice. The note with it: endpoint: median survival time, higher = longer survival. A digest of the protocol:
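Mice bearing transplanted tumor were dosed with compound or vehicle, and survival was recorded. Activity is expressed as the treated-group measurement (T) divided by the vehicle control measurement (C).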

Where [1] appears, read: dose: 12.5 mg/kg/injection, schedule: Q01DX009 (ip), vehicle: Klucel (hydroxypropylcellulose) (HPC).
Setting [2] is: dose: 25.0 mg/kg/injection, schedule: Q01DX009 (ip), vehicle: Klucel (hydroxypropylcellulose) (HPC).
Where [3] appears, read: dose: 100.0 mg/kg/injection, schedule: Q01DX009 (ip), vehicle: Klucel (hydroxypropylcellulose) (HPC).
Where [4] appears, read: dose: 3.12 mg/kg/injection, schedule: Q01DX009 (ip), vehicle: saline with Tween-80.
[5] abbreviates: dose: 6.25 mg/kg/injection, schedule: Q01DX009 (ip), vehicle: saline with Tween-80.
[6] abbreviates: dose: 12.5 mg/kg/injection, schedule: Q01DX009 (ip), vehicle: saline with Tween-80.
Where [7] appears, read: dose: 25.0 mg/kg/injection, schedule: Q01DX009 (ip), vehicle: saline with Tween-80.
Setting [8] is: dose: 50.0 mg/kg/injection, schedule: Q01DX009 (ip), vehicle: saline with Tween-80.
Where [9] appears, read: dose: 50.0 mg/kg/injection, schedule: Q01DX009 (ip), vehicle: Klucel (hydroxypropylcellulose) (HPC).
The mark [10] stands for this setting: dose: 200.0 mg/kg/injection, schedule: Q01DX009 (ip), vehicle: Klucel (hydroxypropylcellulose) (HPC).
[11] abbreviates: dose: 50.0 mg/kg/injection, schedule: Q01DX009 (ip), vehicle: saline.
The mark [12] stands for this setting: dose: 200.0 mg/kg/injection, schedule: Q01DX009 (ip), vehicle: saline.

As to `CO[C@@]12[C@@H]3N[C@@H]3CN1C1=C(C(=O)C(NCc3ccco3)=C(C)C1=O)[C@@H]2COC(N)=O`, the T/C is, setting by setting: (dose: 4.5 mg/kg/injection, schedule: Q01DX001 (ip), vehicle: distilled water + Tween-80) 170 % of control; (dose: 9.0 mg/kg/injection, schedule: Q01DX001 (ip), vehicle: distilled water + Tween-80) 186 % of control; (dose: 18.0 mg/kg/injection, schedule: Q01DX001 (ip), vehicle: distilled water + Tween-80) 219 % of control; (dose: 36.0 mg/kg/injection, schedule: Q01DX001 (ip), vehicle: distilled water + Tween-80) 247 % of control.

On to `COc1c(CNC(=O)CCl)cc2[nH]c(C)cc2c1CNC(=O)CCl`, for which the T/C under setting [1] was 104 % of control, the T/C under setting [2] is 105 % of control and the T/C under setting [3] was 116 % of control.

Take `O=c1[nH]cccc1O`: the T/C runs as follows: (dose: 16.0 mg/kg/injection, schedule: Q01DX009 (ip), vehicle: saline with Tween-80) 101 % of control; (dose: 32.0 mg/kg/injection, schedule: Q01DX009 (ip), vehicle: saline with Tween-80) 92 % of control; (dose: 64.0 mg/kg/injection, schedule: Q01DX009 (ip), vehicle: saline with Tween-80) 93 % of control; (dose: 128.0 mg/kg/injection, schedule: Q01DX009 (ip), vehicle: saline with Tween-80) 105 % of control; (dose: 256.0 mg/kg/injection, schedule: Q01DX009 (ip), vehicle: saline with Tween-80) 99 % of control.

`CN(C)N=Nc1ccc2c(c1)N(C)c1ccc(Cl)cc1S2`: the T/C (dose: 6.25 mg/kg/injection, schedule: Q01DX009 (ip), vehicle: other) was 99 % of control; the T/C (dose: 12.5 mg/kg/injection, schedule: Q01DX009 (ip), vehicle: other) was 109 % of control; the T/C (dose: 25.0 mg/kg/injection, schedule: Q01DX009 (ip), vehicle: other) was 114 % of control; the T/C (dose: 50.0 mg/kg/injection, schedule: Q01DX009 (ip), vehicle: other) is 110 % of control; the T/C (dose: 100.0 mg/kg/injection, schedule: Q01DX009 (ip), vehicle: other) is 114 % of control.

Turning to `BrCC[Se]c1ccccc1`, the T/C reads like this: under setting [4], 113 % of control and 104 % of control; under setting [5], 100 % of control; under setting [6], 119 % of control and 103 % of control; under setting [7], 113 % of control and 100 % of control; under setting [8], 95 % of control and 103 % of control.

In the case of `Cc1ccc2c(c1)n([O-])c1cc(Cl)ccc1[n+]2=O`, the T/C is 105 % of control under setting [6]; 101 % of control under setting [7]; 122 % of control under setting [8]; 111 % of control (dose: 200.0 mg/kg/injection, schedule: Q01DX009 (ip), vehicle: saline with Tween-80).

As to `O=c1[nH]cnc2c1cnn2CN1CCOCC1`, the T/C is 98 % of control and 99 % of control under setting [2]; 100 % of control and 102 % of control under setting [9]; 123 % of control and 100 % of control under setting [3]; 99 % of control under setting [10].

For `C=C(NC(=O)C(=C)NC(=O)c1csc(C2=NC3c4csc(n4)C4NC(=O)c5csc(n5)C(C(C)(O)C(C)O)NC(=O)C5CSC(=N5)/C(=C/C)NC(=O)C(C(C)O)NC(=O)c5csc(n5)C3(CC2)NC(=O)C(C)NC(=O)C(=C)NC(=O)C(=C)NC(=O)C(C(C)C)NC2C=Cc3c(C(C)O)cc(nc3C2O)C(=O)OC4C)n1)C(N)=O` (stereo not drawn), the T/C (dose: 25.0 mg/kg/injection, schedule: Q01DX009 (ip), vehicle: saline) was 121 % of control; the T/C under setting [11] was 109 % of control; the T/C under setting [12] is 121 % of control.

For the compound `NCCc1ccc(O)cc1`, the T/C is 96 % of control under setting [11]; 96 % of control (dose: 100.0 mg/kg/injection, schedule: Q01DX009 (ip), vehicle: saline); 96 % of control under setting [12]; 104 % of control (dose: 400.0 mg/kg/injection, schedule: Q01DX009 (ip), vehicle: saline).

For the compound `CCCCCCCCCCCCCCCC(=O)OCC1OC(n2ccc(N)nc2=O)C(O)C1O` (stereo not drawn), the T/C is, setting by setting: (dose: 3.75 mg/kg/injection, schedule: Q01DX009 (ip), vehicle: saline with Tween-80) 117 % of control; (dose: 7.5 mg/kg/injection, schedule: Q01DX009 (ip), vehicle: saline with Tween-80) 113 % of control and 121 % of control.

Consider `C=C1COC(O)(C2OCOC(C3CC(=O)NC(=O)C3)C2O)C1C` (stereo not drawn), for which the T/C (dose: 4.0 micrograms/kg/injection, schedule: Q01DX009 (ip), vehicle: water) is 94 % of control; the T/C (dose: 8.0 micrograms/kg/injection, schedule: Q01DX009 (ip), vehicle: water) is 111 % of control and 113 % of control; the T/C (dose: 16.0 micrograms/kg/injection, schedule: Q01DX009 (ip), vehicle: water) was 109 % of control; the T/C (dose: 32.0 micrograms/kg/injection, schedule: Q01DX009 (ip), vehicle: water) was 115 % of control.

On to `O/N=C/c1ccccc1O.O/N=C/c1ccccc1O.[Cu]`, for which the T/C was 94 % of control and 95 % of control (dose: 1.56 mg/kg/injection, schedule: Q01DX009 (ip), vehicle: saline with Tween-80); 110 % of control and 86 % of control under setting [4]; 106 % of control under setting [5]; 113 % of control and 88 % of control under setting [6]; 95 % of control under setting [7]; 95 % of control under setting [8].

Take `COc1cc2c(c(OC)c1OC)-c1cccc(=O)cc1C(NC(C)=O)CC2` (stereo not drawn): the T/C reads like this: (dose: 1.25 mg/kg/injection, schedule: Q01DX009 (ip), vehicle: water) 98 % of control; (dose: 2.5 mg/kg/injection, schedule: Q01DX009 (ip), vehicle: saline) 97 % of control; (dose: 2.5 mg/kg/injection, schedule: Q01DX009 (ip), vehicle: water) 102 % of control; (dose: 5.0 mg/kg/injection, schedule: Q01DX009 (ip), vehicle: saline) 100 % of control; (dose: 5.0 mg/kg/injection, schedule: Q01DX009 (ip), vehicle: water) 97 % of control; (dose: 10.0 mg/kg/injection, schedule: Q01DX009 (ip), vehicle: saline) 116 % of control. In addition, the T/C reads like this: (dose: 10.0 mg/kg/injection, schedule: Q01DX009 (ip), vehicle: water) 96 % of control; (dose: 20.0 mg/kg/injection, schedule: Q01DX009 (ip), vehicle: saline) 99 % of control; (dose: 20.0 mg/kg/injection, schedule: Q01DX009 (ip), vehicle: water) 103 % of control; (dose: 40.0 mg/kg/injection, schedule: Q01DX009 (ip), vehicle: saline) 103 % of control.

As for `COC1C(CO)OC(n2c3c(Cl)cccc3c3c4c(c5c6cccc(Cl)c6[nH]c5c32)C(=O)NC4=O)C(O)C1O` (stereo not drawn), the T/C reads like this: (dose: 25.0 mg/kg/injection, schedule: Q01DX009 (ip), vehicle: distilled water + Tween-80) 150 % of control; (dose: 100.0 mg/kg/injection, schedule: Q01DX009 (ip), vehicle: distilled water + Tween-80) 172 % of control and 173 % of control; (dose: 200.0 mg/kg/injection, schedule: Q01DX009 (ip), vehicle: distilled water + Tween-80) 161 % of control.

With `CC1=C(CCC(=O)O)c2cc3nc(cc4[nH]c(cc5[nH]c(cc1n2)c(C)c5C(C)O)c(C)c4C(C)O)C(C)=C3CCC(=O)O` (stereo not drawn), the T/C runs as follows: (dose: 3.13 mg/kg/injection, schedule: Q01DX009 (ip), vehicle: Klucel (hydroxypropylcellulose) (HPC)) 111 % of control; (dose: 6.25 mg/kg/injection, schedule: Q01DX009 (ip), vehicle: Klucel (hydroxypropylcellulose) (HPC)) 115 % of control; under setting [1], 107 % of control; under setting [2], 104 % of control.

Take `CN(C)N=Nc1cn[nH]c1C(N)=O`: the T/C reads like this: under setting [1], 98 % of control; under setting [2], 91 % of control; under setting [9], 96 % of control; under setting [3], 87 % of control; under setting [10], 89 % of control; (dose: 400.0 mg/kg/injection, schedule: Q01DX009 (ip), vehicle: Klucel (hydroxypropylcellulose) (HPC)) 86 % of control.

On to `O=C1c2ccc(Br)cc2-c2cc(Br)ccc21`, for which the T/C is, setting by setting: under setting [5], 98 % of control; under setting [6], 98 % of control; under setting [7], 93 % of control.

`COC(C(=O)C(O)C(C)O)C1CC2C=C3C=C(OC4CC(OC5CC(O)C(OC)C(C)O5)C(OC(C)=O)C(C)O4)C(C)C(=O)C3=C(O)C2=C(O)C1OC1CC(OC2CC(OC3CC(C)(O)C(OC(=O)C(C)C)C(C)O3)C(O)C(C)O2)C(O)C(C)O1` (stereo not drawn): the T/C (dose: 62.5 micrograms/kg/injection, schedule: Q01DX009 (ip), vehicle: saline) was 155 % of control.

As to `CC(C)C(NC(=O)C(CSCc1ccccc1)NC(=O)OCc1ccccc1)C(=O)O` (stereo not drawn) (Cbz-Cys(Bn)-Val-OH; configuration not given here), the T/C reads like this: under setting [3], 93 % of control; under setting [10], 98 % of control.
